The nature of the data set: Solution-based assay: residual trans-polydatin after irradiation with 1 molar equivalent of isomerization stabilizer. The class given is physicochemical. The note with it: for Average of Relative Residual Trans-polydatin (percent): 0.5% by weight trans-polydatin in solution + 1 molar equivalent stabilizer, irradiated at 365 nm, 5 J total energy, HPLC-UV, per stabilizer; for Photo-stabilization of trans-polydatin in solution (in words): 365 nm, 5 J, comment on Table 2.

Experimental: The stabilization of polydatin was evaluated in a solution-based assay where residual trans-polydatin percentage was determined after exposure to radiation. According to the experimental method, trans-polydatin was dissolved in an appropriate solvent at 0.5% by weight. To this solution was added 1 molar equivalent of an isomerization stabilizer. An aliquot of the resulting solution was diluted with methanol and the amount of trans-polydatin was quantified by HPLC-UV. The solution containing trans-polydatin and the additive was irradiated under controlled conditions at 365 nm using 5 J of total energy. An aliquot of the irradiated solution was diluted in methanol and the amount of trans-polydatin was quantified by HPLC-UV. The residual trans-polydatin was calculated by dividing the quantified amount of trans-polydatin obtained from the irradiated solution by the amount of trans-polydatin obtained from the non-irradiated solution and is expressed as a percentage. The relative residual is indicated for each photoisomerization stabilizer and is calculated as an average relative residual for classes of photoisomerization stabilizers where indicated.

With `O=c1cc(-c2ccccc2)oc2cc(O)c(O)c(O)c12` [Baicalein], the “Average of Relative Residual Trans-polydatin (percent)” value is recorded as 42.9%.

As for `O=C(O)c1cc(O)c(O)c(O)c1` [Gallic acid], the “Average of Relative Residual Trans-polydatin (percent)” value is given as −0.3% and the “Photo-stabilization of trans-polydatin in solution (in words)” value (shortened to “Photo-stabilization of trans-polydatin”) was “ineffective”.

`O=c1c(O)c(-c2ccc(O)c(O)c2)oc2cc(O)cc(O)c12` [Quercetin]: the “Average of Relative Residual Trans-polydatin (percent)” value is 24.8%. Turning to `Cc1cc(C(C)(C)C)c(O)c(C(C)(C)C)c1` [BHT, tert-butylhydroxytoluene], the “Average of Relative Residual Trans-polydatin (percent)” value is given as −3.1% and the “Photo-stabilization of trans-polydatin” value is “ineffective”. As to `COc1ccc([C@@H]2CC(=O)c3c(O)cc(O[C@@H]4O[C@H](CO[C@@H]5O[C@@H](C)[C@H](O)[C@@H](O)[C@H]5O)[C@@H](O)[C@H](O)[C@H]4O)cc3O2)cc1O` [Hesperidine], the “Average of Relative Residual Trans-polydatin (percent)” value came out at 41.6%. Still for that read-out and setting: for `COc1ccc([C@@H]2CC(=O)c3c(O)cc(O)cc3O2)cc1O` [Hesperetin] the value was 30.6%. Consider `O=C1O[C@H]([C@@H](O)CO)C(O)=C1O[C@H]1O[C@H](CO)[C@@H](O)[C@H](O)[C@H]1O` [Vitamin CG], for which the “Average of Relative Residual Trans-polydatin (percent)” value is on record as 6.9% and the “Photo-stabilization of trans-polydatin” value was “ineffective”.

As for Vitamin E, the “Average of Relative Residual Trans-polydatin (percent)” value came to 0.6% and the “Photo-stabilization of trans-polydatin” value is “ineffective”. `O=C(O)/C=C/c1ccc(O)cc1` [p-coumaric acid]: the “Average of Relative Residual Trans-polydatin (percent)” value is on record as 38.6%. For the molecule `O=c1cc(-c2ccc(O)c(O)c2)oc2cc(O)cc(O)c12` [Luteolin], the “Average of Relative Residual Trans-polydatin (percent)” value is listed as 63.3%. As for `NC(=O)c1cccnc1` [Niacinamide], the “Average of Relative Residual Trans-polydatin (percent)” value was −0.3% and the “Photo-stabilization of trans-polydatin” value is “ineffective”.

Regarding `O=C1c2c(O)cc(O)cc2O[C@H](c2ccc(O)c(O)c2)[C@H]1O` [Taxifolin], the “Average of Relative Residual Trans-polydatin (percent)” value came to 38.3%. Consider `O=C(O)C(O)c1ccccc1` (stereo not drawn) [Mandelic acid], for which the “Average of Relative Residual Trans-polydatin (percent)” value is given as −0.9% and the “Photo-stabilization of trans-polydatin” value is given as “ineffective”. For the molecule `O=C(O)[C@H]1O[C@@H](Oc2cc3oc(-c4ccccc4)cc(=O)c3c(O)c2O)[C@H](O)[C@@H](O)[C@@H]1O` [Baicalin], the “Average of Relative Residual Trans-polydatin (percent)” value came out at 32.3%. On the same count and under the same terms, for `O=c1cc(-c2ccc(O)cc2)oc2cc(O)cc(O)c12` [Apigenin] the value was 66.7%; for `O=C(O[C@@H]1Cc2c(O)cc(O)cc2O[C@@H]1c1cc(O)c(O)c(O)c1)c1cc(O)c(O)c(O)c1` [Epigallocatechine gallate], 0.4%. Same read-out and setting: for Glycosyl Hesperidin the value was 31.0%. Turning to `COc1cc(/C=C/C(=O)O)ccc1O` [Ferulic acid], the “Average of Relative Residual Trans-polydatin (percent)” value worked out at 35.5%.

The values above are taken from patent publication US12168067B2, “Photostable antioxidant cosmetic composition” (priority 2019, dated 2024).
